Consider 110 compounds from a melting point compilation (Tetko et al.).

As usually defined, the melting point is the temperature of the solid-liquid transition. `COc1ccc(C)cc1N` displayed a melting point of 53 °C. `OCC(I)CC(F)(F)C(F)(F)C(F)(F)C(F)(F)C(F)(F)C(F)(F)C(F)(F)C(F)(F)F` (stereo not given): the melting point was in the range of 54 to 55 °C. In turn, `CCOC(=O)CC1Sc2ccccc2NC1=O` (stereo not given) registered a melting point of 126 to 128 °C.

As to `O=[N+]([O-])c1cc2nccnc2cc1Br`, the melting point was 221 to 227 °C. As for `NNc1ncnc2c1cnn2-c1ccccc1`, the melting point was in the range of 190 to 191 °C.

As to `Cc1cccc(C(=O)C(=O)c2ccccc2)n1`, the melting point was 76.8 °C. Turning to `O=[N+]([O-])c1cccc([N+](=O)[O-])c1CO`, the melting point lay within 85 to 95 °C. Compound `CC12CCC(C(=CC(N)=O)C1=O)C2(C)C` (stereo not given) had a melting point of 152 °C. For the compound `O=C(O)C1c2ccccc2C(=O)N(Cc2ccc(F)cc2)C1c1cccnc1` (stereo not given), the melting point came out at 250 °C. For `Cc1cc2nc3c(=O)[nH]c(=O)nc-3n(CC(O)C(O)C(O)CO)c2cc1C` (stereo not given) the value was 290 °C; for `CC(O)Cn1cnc2c1c(=O)n(C)c(=O)n2C` (stereo not given), 136 °C; for `NC(=O)C1(N2C(=O)c3cccc(Cl)c3C2=O)CCCCC1`, 194 °C. `O=C(C=Cc1ccc(OC(=O)c2ccco2)cc1)c1ccccc1`: the melting point was determined as 115 °C. Compound `O=C(N[C@@H](Cc1ccc(F)cc1)C(=O)O)OCC1c2ccccc2-c2ccccc21` gave a melting point of 185 °C.

Compound `CCCC(C)OC(C)=O` (stereo not given) gave a melting point of -100 °C.

With `O=C(N=C=S)c1ccc(Cl)cc1`, the melting point was in the range of 45 to 46 °C.

Turning to `Cn1c(SCC(=O)O)nnc1-c1ccc2ncccc2c1`, the melting point lay in the range of 238 to 239 °C.

Compound `CC(N)C(O)c1ccccc1` (stereo not given) returned a melting point of 192 °C. `COc1cc(C=O)cc(OC)c1OC` gave a melting point of 75 °C. For the compound `CCCCCCCCCCOc1ccc(/C=N/c2ccc(/C=C/C(=O)OCC)cc2)cc1`, the melting point fell in the range of 114 to 115 °C. Take `C#CC(O)c1ccccc1` (stereo not given): the melting point is 28 °C.

`Cc1ccc(C)c(N/N=C(/C#N)c2nc(C)c(/N=N/c3ccccc3)s2)c1`: the melting point is 201 to 203 °C. As to `NC(C(=O)O)(c1ccccc1)C1CCC1` (stereo not given), the melting point was in the range of 256 to 258 °C. As for `C#CC1(O)CCC2C3CCc4cc(O)ccc4C3CCC21C` (stereo not given), the melting point worked out at 141 °C. As for `CCCCCCCCCN`, the melting point was -1 °C.

As for `CCCCCCCCN1CCCC1=O`, the melting point was -25 °C. Turning to `CN1CCCN(C)C1=O`, the melting point was -20 °C. For `CON(/C=C1\C(=O)C2(C)CCC1C2(C)C)c1ccccc1` (stereo not given) the value was 75 to 76 °C; for `CC(=O)Nc1ccc(C(C)=O)cc1`, 169 °C; for `O=C(O)C=Cc1ccc([N+](=O)[O-])cc1`, 289 °C. As for `C=CCC1(CC=C)C(=O)NC(=O)NC1=O`, the melting point was in the range of 172 to 173 °C.

The compound `COC(=O)C1=Cc2ccccc2C1C` (stereo not given) returned a melting point of 32 °C.

`OCC(CO)(CO)NCCCNC(CO)(CO)CO`: the melting point was determined as 169 °C.

`O=C1Nc2ccccc2/C1=C/c1ccccc1[N+](=O)[O-]` showed a melting point of 82 °C. Regarding `O=C1/C(=C/c2ccccc2O)SC(=S)N1CN1CCOCC1`, the melting point came out at 166 °C. As to `CC(Br)C(Br)c1nc(O)n(-c2ccccc2)n1` (stereo not given), the melting point is 128 °C. In turn, `COc1ccc(C(=O)c2cccc(Br)c2)cc1OC` had a melting point of 97 °C. Regarding `O=C(O)Cc1cccc(F)c1F`, the melting point was 118 °C. In turn, `CCOCn1c(-c2ccc(Cl)cc2)c(C#N)c(Br)c1C(F)(F)F` came in with a melting point of 101 °C. For `C1CCCCCCCCCC1` the value was -7 °C. For `Cc1ccc2c(c1)CC2=O` the value was 53 °C; for `Cc1cnc(N)c([N+](=O)[O-])c1`, 190 to 195 °C.

The compound `COc1ccc([C@@H](O)[C@@H](CO)Oc2c(OC)cccc2OC)cc1OC` registered a melting point of 111 °C. Compound `O=C(O)c1ccc2nsnc2c1` had a melting point of 229 to 231 °C. In turn, `O=C(Cc1ccccc1)CC(c1ccco1)N1CCCCC1` (stereo not given) gave a melting point of 130 °C. Regarding `CC(C(=O)O)c1ccc(N2CC=CC2)c(Cl)c1` (stereo not given), the melting point is 99 °C. The compound `c1ccc([C@@H]2COC(c3cccc(C4=N[C@H](c5ccccc5)CO4)n3)=N2)cc1` came in with a melting point of 171 to 175 °C.

In turn, `O=Cc1c(F)cc(O)cc1F` gave a melting point of 181 °C.

Consider `CC(=O)OC(C(=O)c1ccccc1)c1ccccc1` (stereo not given), for which the melting point came out at 82 °C. For `CCC(CC)(CO)CO`, the melting point came to 61.5 °C. `Cc1cc(C)c(N)c(Br)c1` returned a melting point of 44 °C. `COc1cccc(C)c1C`: the melting point came out at 29 °C. `O=C1CSC2(CCN(CCCN3c4ccccc4Sc4ccc(Cl)cc43)CC2)N1` yielded a melting point of 155 °C.

In turn, `O=C1CCSc2ccccc21` showed a melting point of 29 °C. `CC(C)(CO)NCC(O)CS(=O)(=O)O` (stereo not given) gave a melting point of 215 to 225 °C. `CC(C)Cn1cnc2c(N)nc3ccccc3c21` had a melting point of 293 °C. Under `O=C(N(Cc1ccccc1)Cc1ccccc1)C(F)(F)C(F)(F)C(F)(F)C(F)(F)C(F)(F)C(F)(F)C(F)(F)C(F)(F)F` stands 49 °C; under `ON=C(NN=C(Cl)C(F)(F)F)C(F)(F)F`, 119 °C; under `O=C(O)c1cc(I)ccc1F`, 163 °C. `Cc1cccc(C(=O)Cl)c1C` yielded a melting point of 2 °C. For `Cc1cc(C)c(NC(=O)C(F)(F)C(F)(F)C(F)(F)C(F)(F)C(F)(F)C(F)(F)C(F)(F)C(F)(F)F)c(C)c1`, the melting point came to 63 °C. As for `NC(=O)NC=O`, the melting point fell in the range of 170 to 173 °C. For `CC(=O)OC1CCC2(C)C(CCC3C4=C(CCC32)C(C)(C#Cc2ccccc2)CC4)C1` (stereo not given) the value was 135 to 136 °C.

On to `C=CC(N)CCC(=O)O` (stereo not given), for which the melting point was 209 °C. In turn, `Cc1ccc(-c2nnc(CCl)o2)cc1` showed a melting point of 121 to 123 °C.

Take `O=S(=O)(O)CCCNC(CO)(CO)CO`: the melting point was 240 °C. For `O=[N+]([O-])c1cc(F)cc(F)c1`, the melting point is 17 °C. Compound `CCOC(=O)c1sc(-c2ccccn2)nc1CBr` gave a melting point of 102 °C.

`O=[N+]([O-])c1ccc(NN=CC2=C(C#Cc3ccccc3)CCCC2)c([N+](=O)[O-])c1` displayed a melting point of 198 to 199 °C.

In the case of `O=C(O)c1cc(F)c(F)c(Br)c1F`, the melting point amounted to 123 °C. As to `COc1ccc(C(C)=O)c(F)c1`, the melting point worked out at 52 °C. Compound `Nc1cc2c(cc1C=Cc1ccccc1)CC(c1ccccc1)N2` (stereo not given) returned a melting point of 163 °C. Take `O=C(C1=NN(c2ccccc2)C2C(=O)N(c3ccc([N+](=O)[O-])cc3)C(=O)C12)c1ccc(Br)cc1` (stereo not given): the melting point came to 151 °C. `CCCCCCCCCCCCCCCC(=O)Oc1c[nH]c2ccc(Br)c(Cl)c12` came in with a melting point of 53 to 57 °C. For `N#CCc1c(C#N)c(N)nc(Cl)c1C#N` the value was 257 to 259 °C; for `COc1ccc(-c2ccc(C(=O)O)o2)cc1`, 176 to 178 °C; for `Cc1ccc(S(N)(=O)=O)cc1Cl`, 137 °C.

With `CCCCCCCC=O`, the melting point was 12.5 °C.

In turn, `COc1cc2c(cc1C)C(Cl)C2` (stereo not given) had a melting point of 41 °C. `C#CC1(OC(C)=O)CCC2C3CCC4=CC(=O)CCC4C3CCC21C` (stereo not given): the melting point was found to be 162 °C. For `Cc1cc(-c2ccccc2)nnc1NCCN1CCOCC1` the value was 122 °C. Consider `CCOC(=O)c1c(NC(=S)Nc2ccc(F)cc2)sc2c1CCCC2`, for which the melting point lay in the range of 209 to 211 °C. Compound `O=C(O)[C@@H]1Cc2ccc(O)cc2CN1` displayed a melting point of 273 to 275 °C.

For the compound `Cc1nc2ccccc2n1CCc1nnc(SCc2ccccc2)n1-c1ccccc1`, the melting point worked out at 130 °C.

Regarding `NC(=O)[C@@H]1CCCC[C@@H]1O` (relative stereo), the melting point lay in the range of 115 to 119 °C. Under `O=c1nn[nH]c2ccccc12` stands 223 °C; under `Clc1nncc2ccccc12`, 111 °C; under `CCOC(=O)CNc1cc(Cl)c([N+](=O)[O-])cc1[N+](=O)[O-]`, 146 °C. `Cc1ccc(/C=C2\CCC/C(=C\c3ccc(C)s3)C2=O)s1` came in with a melting point of 166 °C. For `Cc1ccc(C(=O)c2csc(S(N)(=O)=O)c2)cc1`, the melting point is 176 °C. Turning to `N#CC(c1ccccc1)N1CCCCC1` (stereo not given), the melting point was in the range of 62 to 63 °C. In the case of `CC(=O)Nc1ccc(/C=C/c2ccc([N+](=O)[O-])cc2)c([N+](=O)[O-])c1`, the melting point amounted to 236 °C. As for `Cc1cc(Cl)cc(Cl)c1Cl`, the melting point was 45.5 °C. For `COC(=O)C1=C(C)NC(=S)NC1c1ccc([N+](=O)[O-])cc1` (stereo not given) the value was 175 °C.

Consider `OCc1cc2cc(Br)ccc2o1`, for which the melting point was in the range of 101 to 103 °C. Under `O=[N+]([O-])c1ccc(ON=Cc2cc(Br)c(O)c(Br)c2)c([N+](=O)[O-])c1` stands 196 °C; under `CSC`, -83 °C; under `O[C@@H]1CCCC[C@H]1NCc1ccccc1` (relative stereo), 69 to 72 °C. For the compound `CC1CC(=O)c2cc(F)ccc2O1` (stereo not given), the melting point is 71 °C. Take `NC(=O)CN1CCCC1=O`: the melting point stood at 152 °C. The compound `Cc1cnc(Cl)nc1Cl` yielded a melting point of 26 °C. Under `Cc1cc(Cl)cc2c(O)c(C(=O)O)cnc12` stands 303 to 308 °C; under `ClCCc1ccccc1`, -60 °C. The compound `CC(=O)OC1CCC2(C)C(CCC3C2CCC2(C)C3CCC23OCCO3)C1` (stereo not given) registered a melting point of 153 °C.

Turning to `C/C(=N/NC(N)=O)C1=CC2(C)CCC1C2(C)C` (stereo not given), the melting point was 218 °C.

Turning to `Brc1ccc(-c2cnco2)cc1`, the melting point was 78 to 79 °C.

The compound `O=Cc1ccc(-c2ccc(C(F)(F)F)cc2Cl)o1` registered a melting point of 86 to 87 °C. Take `OC12CC3CC(CC(C3)C1)C2`: the melting point was 240 °C. Compound `Oc1c(Cl)c(Cl)c(Cl)c(Cl)c1Cl` yielded a melting point of 191 °C. The compound `Cc1ccc(Cc2c(N)n[nH]c2N)cc1` came in with a melting point of 173 to 175 °C.
